The source of these data is patent US20020058288A1, “TOXOPLASMA GONDII GLYCOCONJUGATES” (priority 1995, published 2002).

In the assay the test system is Wistaria floribunda agglutinin. Put plainly: Lectin affinity chromatography on W. floribunda agglutinin agarose. It counts as binding. Particulars: elution with 100 mM N-acetylgalactosamine as specific inhibitor, FIG. 7. The protocol:
Lectin affinity chromatography was performed as previously described (Nakano et al., Arch. Biochem. Biophys. 311, 117-126, 1994). Briefly, radiolabeled core glycans derived from glycolipid II, III (core glycan A and B respectively) and rat brain THY1 membrane anchor were applied to a 1 ml column of W. floribunda agglutinin agarose (5 mg lectin/ml gel) equilibrated in 50 mM Tris-HCl, pH 7.4 containing 0.02% sodium azide. Elution was accomplished using 25 ml of equilbration buffer followed by 15 ml of the same buffer containing 100 mM N-acetylgalactosamine as specific inhibitor.
FIG. 7: Analysis of core glycans derived from TLC purified glycolipids labelled with ^3H glucosamine on Wisaria floribunda agglutinin agarose: Core glycan A (A), core glycan (B), Man4GalNAcAHM from rat brain Thy1 anchor (C), arrow indicates buffer change

Regarding Man3(GalNAc)AHM [Core glycan A], the “Affinity towards W. floribunda agglutinin column” value is listed as “bound to the column”.
